These results are taken from patent US10640497B2, “Microbiocidal oxadiazole derivatives” (SYNGENTA PARTICIPATIONS AG, priority 2015, dated 2020).

Test [1] concerns Phakopsora pachyrhizi. Kind of test: Fungicidal activity against Phakopsora pachyrhizi, soybean, leaf disc preventative (Asian soybean rust). Type of test: in vivo. Particulars: foliar, 288 h, 12-14 days after application, compared to untreated control. The protocol: Leaf disks or leaf segments of various plant species are cut from plants grown in a greenhouse. The cut leaf disks or segments are placed in multiwell plates (24-well format) onto water agar. The leaf disks are sprayed with a test solution before (preventative) or after (curative) inoculation. Compounds to be tested are prepared as DMSO solutions (max. 10 mg/ml) which are diluted to the appropriate concentration with 0.025% Tween20 just before spraying. The inoculated leaf disks or segments are incubated under defined conditions (temperature, relative humidity, light, etc.) according to the respective test system. A single evaluation of disease level is carried out 3 to 14 days after inoculation, depending on the pathosystem. Percent disease control relative to the untreated check leaf disks or segments is then calculated. Soybean leaf disks are placed on water agar in multiwell plates (24-well format) and sprayed with the formulated test compound diluted in water. One day after application leaf discs are inoculated by spraying a spore suspension on the lower leaf surface. After an incubation period in a climate cabinet of 24-36 hours in darkness at 20° C. and 75% rh leaf disc are kept at 20° C. with 12 h light/day and 75% rh. The activity of a compound is assessed as percent disease control compared to untreated when an appropriate level of disease damage appears in untreated check leaf disks (12-14 days after application).

The subject of test [2] is Glomerella lagenarium (Colletotrichum lagenarium). As to the kind of experiment: Fungicidal activity against Glomerella lagenarium (Colletotrichum lagenarium), liquid culture, cucumber, preventative (anthracnose). Particulars: Colletotrichum orbiculare, liquid culture (PDB), growth inhibition measured photometrically 3-4 days after application, compared to untreated control. Type of test: cell-based. Here is the method: Mycelia fragments or conidia suspensions of a fungus, prepared either freshly from liquid cultures of the fungus or from cryogenic storage, are directly mixed into nutrient broth. DMSO solutions of the test compound (max. 10 mg/ml) is diluted with 0.025% Tween20 by a factor of 50 and 10 μl of this solution is pipetted into a microtiter plate (96-well format). The nutrient broth containing the fungal spores/mycelia fragments is then added to give an end concentration of the tested compound. The test plates are incubated in the dark at 24° C. and 96% relative humidity. The inhibition of fungal growth is determined photometrically after 2 to 7 days, depending on the pathosystem, and percent antifungal activity relative to the untreated check is calculated. Conidia of the fungus from cryogenic storage are directly mixed into nutrient broth (PDB potato dextrose broth). After placing a (DMSO) solution of test compound into a microtiter plate (96-well format), the nutrient broth containing the fungal spores is added. The test plates are incubated at 24° C. and the inhibition of growth is measured photometrically 3-4 days after application.

Test [3] concerns Puccinia recondita f. sp. tritici. Kind of test: Fungicidal activity against Puccinia recondita f. sp. tritici, wheat, leaf disc curative (brown rust). Type of test: in vivo. Particulars: foliar, 144 h, wheat leaf segments, curative (applied 1 day after inoculation), 6-8 days after application, compared to untreated control. Here is the method:
(§1) Leaf disks or leaf segments of various plant species are cut from plants grown in a greenhouse. The cut leaf disks or segments are placed in multiwell plates (24-well format) onto water agar. The leaf disks are sprayed with a test solution before (preventative) or after (curative) inoculation. Compounds to be tested are prepared as DMSO solutions (max. 10 mg/ml) which are diluted to the appropriate concentration with 0.025% Tween20 just before spraying. The inoculated leaf disks or segments are incubated under defined conditions (temperature, relative humidity, light, etc.) according to the respective test system. A single evaluation of disease level is carried out 3 to 14 days after inoculation, depending on the pathosystem. Percent disease control relative to the untreated check leaf disks or segments is then calculated. Wheat leaf segments cv. Kanzler are placed on agar in multiwell plates (24-well format). The leaf segments are inoculated with a spore suspension of the fungus. Plates are stored in darkness at 19° C. and 75% rh. The formulated test compound diluted in water is applied 1 day after inoculation. The leaf segments are incubated at 19° C. and 75% rh under a light regime of 12 h light/12 h darkness in a climate cabinet and the activity of a compound is assessed as percent disease control compared to untreated when an appropriate level of disease damage appears in untreated check leaf segments (6-8 days after application).

Test [4] has the same test system. Kind of test: Fungicidal activity against Puccinia recondita f. sp. tritici, wheat, leaf disc preventative (brown rust). Type of test: in vivo. To be noted: foliar, wheat leaf segments, preventative (inoculated 1 day after application), 7-9 days after application, compared to untreated control. Here is the method: as §1, with “plates (24-well format) and sprayed with the formulated test compound diluted in water. The leaf” for “plates (24-well format). The leaf”, “of the fungus 1 day” for “of the fungus. Plates are stored in darkness at 19° C. and 75% rh. The formulated test compound diluted in water is applied 1 day”, “day after application. The inoculated” for “day after inoculation. The leaf”, “application. The inoculated leaf segments” for “inoculation. The leaf segments”, “leaf segments (7-9 days after” for “leaf segments (6-8 days after”

What is called pest or weed control is the degree to which the test organism was suppressed or injured, in per cent. A high value points to a strong effect. The term inhibition of growth denotes the drop in the measured response relative to a control, in per cent. A high value points to a strong effect.

As to `O=C1CCCN1Cc1ccc(-c2noc(C(F)(F)F)n2)cc1` [Compound A-1, 1-[[4-[5-(trifluoromethyl)-1,2,4-oxadiazol-3-yl]phenyl]methyl]pyrrolidin-2-one], the pest or weed control at 200 ppm in test [1], in test [3] and in test [4] was at least 80% throughout. Also, in test [2], the inhibition of growth at 20 ppm was at least 80%.
Consider `O=C1CCCCN1Cc1ccc(-c2noc(C(F)(F)F)n2)cc1` [Compound A-2, 1-[[4-[5-(trifluoromethyl)-1,2,4-oxadiazol-3-yl]phenyl]methyl]piperidin-2-one], for which the pest or weed control at 200 ppm in test [1], in test [3] and in test [4] was at least 80% throughout.
As for `O=C1COCCN1Cc1ccc(-c2noc(C(F)(F)F)n2)cc1` [Compound A-3, 4-[[4-[5-(trifluoromethyl)-1,2,4-oxadiazol-3-yl]phenyl]methyl]morpholin-3-one], the pest or weed control at 200 ppm in test [1], in test [3] and in test [4] was at least 80% each time.
`CC1(C)CON(Cc2ccc(-c3noc(C(F)(F)F)n3)cc2)C1=O` [Compound A-4, 4,4-dimethyl-2-[[4-[5-(trifluoromethyl)-1,2,4-oxadiazol-3-yl]phenyl]methyl]isoxazolidin-3-one]: the pest or weed control at 200 ppm in test [1], in test [3] and in test [4] was at least 80% in each case. Besides, the inhibition of growth at 20 ppm in test [2] was at least 80%.
In test [2], `O=C1CCCN1Cc1ccc(-c2noc(C(F)(F)F)n2)cn1` [Compound A-28, 1-[[5-[5-(trifluoromethyl)-1,2,4-oxadiazol-3-yl]-2-pyridyl]methyl]pyrrolidin-2-one] had an inhibition of growth at 20 ppm of at least 80%. Further, the pest or weed control at 200 ppm in test [3] and in test [4] was at least 80% in each case.
As for `COCC(=O)N1CCN(Cc2ccc(-c3noc(C(F)(F)F)n3)cc2)C(=O)C1` [Compound A-31, 4-(2-methoxyacetyl)-1-[[4-[5-(trifluoromethyl)-1,2,4-oxadiazol-3-yl]phenyl]methyl]piperazin-2-one], the inhibition of growth at 20 ppm in test [2] is at least 80%. In addition, the pest or weed control at 200 ppm in test [3] and in test [4] was at least 80% in each case.
`O=C1CNCCN1Cc1ccc(-c2noc(C(F)(F)F)n2)cc1` [Compound A-36, 1-[[4-[5-(trifluoromethyl)-1,2,4-oxadiazol-3-yl]phenyl]methyl]piperazin-4-ium-2-one; chloride] showed a pest or weed control at 200 ppm in test [4] of at least 80%.
For `O=C1CCCCN1Cc1ccc(-c2noc(C(F)(F)F)n2)c(F)c1` [Compound A-44, 1-[[3-fluoro-4-[5-(trifluoromethyl)-1,2,4-oxadiazol-3-yl]phenyl]methyl]piperidin-2-one], the inhibition of growth at 20 ppm in test [2] was at least 80%. For the same molecule, the pest or weed control at 200 ppm in test [3] and in test [4] was at least 80% each time.
The molecule `O=C1OCCN1Cc1ccc(-c2noc(C(F)(F)F)n2)cc1` [Compound A-45, 3-[[4-[5-(trifluoromethyl)-1,2,4-oxadiazol-3-yl]phenyl]methyl]oxazolidin-2-one] displayed an inhibition of growth at 20 ppm in test [2] of at least 80%. Moreover, the pest or weed control at 200 ppm in test [3] and in test [4] was at least 80% in each case.
`CC1(C)CCCN(Cc2ccc(-c3noc(C(F)(F)F)n3)nc2)C1=O` [Compound A-52, 3,3-dimethyl-1-[[6-[5-(trifluoromethyl)-1,2,4-oxadiazol-3-yl]-3-pyridyl]methyl]piperidin-2-one] gave an inhibition of growth at 20 ppm in test [2] of at least 80%.
For `CS(=O)(=O)N1CC(=O)N(Cc2ccc(-c3noc(C(F)(F)F)n3)cc2)C(=O)C1` [Compound A-59, 4-methylsulfonyl-1-[[4-[5-(trifluoromethyl)-1,2,4-oxadiazol-3-yl]phenyl]methyl]piperazine-2,6-dione], the pest or weed control at 200 ppm in test [1] and in test [4] was at least 80% throughout. This molecule also registered an inhibition of growth at 20 ppm in test [2] of at least 80%.
As to `CN(C)S(=O)(=O)N1CC(=O)N(Cc2ccc(-c3noc(C(F)(F)F)n3)cc2)C(=O)C1` [Compound A-60, N,N-dimethyl-3,5-dioxo-4-[[4-[5-(trifluoromethyl)-1,2,4-oxadiazol-3-yl]phenyl]methyl]piperazine-1-sulfonamide], the pest or weed control at 200 ppm in test [1] and in test [4] was at least 80% throughout.
For the molecule `O=C1CNCC(=O)N1Cc1ccc(-c2noc(C(F)(F)F)n2)cc1` [Compound A-61, 1-[[4-[5-(trifluoromethyl)-1,2,4-oxadiazol-3-yl]phenyl]methyl]piperazin-4-ium-2,6-dione; chloride], the inhibition of growth at 20 ppm in test [2] was at least 80%.
For the molecule `O=C1CCCN1Cc1ccc(-c2noc(C(F)(F)F)n2)c(F)c1` [Compound A-63, 1-[[3-fluoro-4-[5-(trifluoromethyl)-1,2,4-oxadiazol-3-yl]phenyl]methyl]pyrrolidin-2-one], the inhibition of growth at 20 ppm in test [2] is at least 80%. Besides, the pest or weed control at 200 ppm in test [3] and in test [4] was at least 80% in each case.
Take `CC1(C)CON(Cc2ccc(-c3noc(C(F)(F)F)n3)c(F)c2)C1=O` [Compound A-64, 2-[[3-fluoro-4-[5-(trifluoromethyl)-1,2,4-oxadiazol-3-yl]phenyl]methyl]-4,4-dimethyl-isoxazolidin-3-one]: the inhibition of growth at 20 ppm in test [2] was at least 80%. In test [4], this molecule came in with a pest or weed control at 200 ppm of at least 80%.
In test [2], `O=S1(=O)CCCN1Cc1ccc(-c2noc(C(F)(F)F)n2)cc1Cl` [Compound B-2, 2-[[2-chloro-4-[5-(trifluoromethyl)-1,2,4-oxadiazol-3-yl]phenyl]methyl]-1,2-thiazolidine 1,1-dioxide] showed an inhibition of growth at 20 ppm of at least 80%. In test [4], the pest or weed control at 200 ppm is at least 80%.
For `CN1CCCN(Cc2ccc(-c3noc(C(F)(F)F)n3)cc2)S1(=O)=O` [Compound B-3, 2-methyl-6-[[4-[5-(trifluoromethyl)-1,2,4-oxadiazol-3-yl]phenyl]methyl]-1,2,6-thiadiazinane 1,1-dioxide], the inhibition of growth at 20 ppm in test [2] is at least 80%. Also, the pest or weed control at 200 ppm in test [3] and in test [4] was at least 80% in each case.
On to `CN1CCCN(Cc2ccc(-c3noc(C(F)(F)F)n3)cc2Cl)S1(=O)=O` [Compound B-4, 2-[[2-chloro-4-[5-(trifluoromethyl)-1,2,4-oxadiazol-3-yl]phenyl]methyl]-6-methyl-1,2,6-thiadiazinane 1,1-dioxide], for which, in test [2], the inhibition of growth at 20 ppm was at least 80%.
